Experimental findings from patent US8258295B2, “Triazine derivatives, compositions containing such derivatives, and methods of treatment of cancer and autoimmune diseases using such derivatives” (Prometic Biosciences Inc., priority 2007, dated 2012) are described below.

For orientation: inhibition means how much of the control response was suppressed.

Read-outs that look alike come from different tables or passages of the source.

In experiment [1] the test system is NHDF (normal human dermal fibroblast). The experiment in a line: MTT cytotoxicity on NHDF. It counts as cell-based. The procedure:
(§1) This assay was performed to determine the effect of compounds of the present invention on cell cytotoxicity. Cells were incubated in presence or absence of compounds in their respective conditioned media. After 24 hr or 72 hr incubation, 50 μl of 3-(4,5-dimethyl-2-thiazyl)-2,5-diphenyl-2H-tetrazolium bromide (MTT; 2 mg/ml) was added and further incubated for 4 hr. The supernatant was discarded and 100 μl of dimethylsulfoxide (DMSO) was added. Absorbance was read at 570 nm with a TecanSunrise ELISA plate reader. The control group consisted of cells without compounds and is referred to as 100% of viable cells. IC50 was determined using Prism software.
(§2) All compounds have weak effect on cell cytotoxicity. The predictive utility of cell based cytotoxicity assays to assess the potential in vivo anticancer activity of compounds with selected cancer cell lines is well established in the art and the use of whole cells, instead of isolated protein receptors or enzymes, provides a more reliable determination of activity. See, for example, Paull et al. (J. Nat'l Cancer Inst. 81:1088-1092, 1989); Monks et al. (J. Nat'l Cancer Inst. 83:757-766, 1991); Bandes et al. (J. Nat'l Cancer Inst. 86:770-775, 1994); and Kamate et al. (Int'l J. Cancer 100:571-579, 2002).

Experiment [2] concerns HUVEC (human umbilical vein endothelial cell). The experiment in a line: MTT cytotoxicity on HUVEC. Format: cell-based. The procedure: as §1, §2
Experiment [3] concerns PC-3 human prostate carcinoma cell. The experiment in a line: MTT cytotoxicity on PC-3. Format: cell-based. The method, then:
as §1, §2

The subject of experiment [4] is P815 murine mastocytoma cell. The experiment in a line: MTT cytotoxicity on P815. Conditions: Mus musculus. It counts as cell-based. The method, then:
as §1, §2

A further experiment deals with B16F10 melanoma. The experiment in a line: Primary B16F10 melanoma tumor in mice. It counts as in vivo. The following applies: C57BL/6 mice, IV on day 14, 16, 18; FIG. 2A/2B. The method, then: Female 6-8 week old C57BL/6 mice were injected intradermally on day 0 with 50 μl of 3.75×10^4 viable B16F10 melanoma cells from ATCC (source of cell culture, Dr. I. J. Fidler). On day 14, tumors reached […] and animals were randomized for treatments. Animals were then injected IV with saline (negative control) or compound (5 mg/kg, 25 mg/kg, or 50 mg/kg) on day 14, day 16, and day 18 or 10 mg/kg doxorubicin (positive control) on day 14. Mice were sacrificed on day 29. Body weight and tumor volume were recorded. Serial tumor volume was obtained by bi-dimensional diameter measurements with calipers, using the formula 0.4 (a×b^2) where “a” was the major tumor diameter and “b” the minor perpendicular diameter. An antitumor effect can be quantitated by T/C, which is calculated as (Treated tumor volume/Control tumor volume)×100%.

In the next experiment the target is TNFα (Homo sapiens, UniProt P01375). The experiment in a line: TNFα-induced apoptosis in WEHI-13VAR cell line. It counts as cell-based. The following applies: for inhibition at 10 µM: 1 × 10^−5 M; for inhibition at 20 µM: 2 × 10^−5 M; for inhibition at 40 µM: 4 × 10^−5 M; for inhibition at 5 µM: 5 × 10^−6 M. The method, then: Effect of compounds on TNFα-induced apoptosis was measured by a standard biological assay using WEHI-13VAR cells. These cells undergo apoptosis when they are incubated in the presence of TNFα and actinomycin D. 2×10^4 WEHI-13VAR cells were incubated in RPMI supplemented with 1% sodium pyruvate and 10% FBS, overnight at 37° C. for cell adherence. The cells were then cultured in the presence of 1 μg/ml of actimomycin D ([…]) and 0.04 nM TNFα with or without compounds at 37° C. After 16 hr to 24 hr, 50 μl of a solution of 2 mg/ml of MIT was added to each well and the plate was then incubated for 4 hr at 37° C. Only viable cells metabolize MTT to form formazan salt, which is detectable by the measurement of absorbance at 570 nm. After the incubation, the plate was inverted to remove medium and dead cells. 150 μDMSO was added to each well to stop the reaction and solubilize the formazan salt. Optical density was read on a Bio-Tek EL 800 UV microplate reader. A decrease in the optical density is direct evidence of cell apoptosis induced by TNFα. Compounds were also compared to the activity of an anti-TNFα neutralizing antibody.
Chain of TNFα (P01375 77-233 limits assumed, species assumed): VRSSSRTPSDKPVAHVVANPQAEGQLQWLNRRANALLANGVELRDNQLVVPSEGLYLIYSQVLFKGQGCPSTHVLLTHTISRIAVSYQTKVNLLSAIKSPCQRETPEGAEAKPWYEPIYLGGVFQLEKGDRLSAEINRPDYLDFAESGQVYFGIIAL

The test system of experiment [5] is peripheral blood mononuclear leukocytes (PBML). The experiment in a line: PBML RNA synthesis ([3H]-uridine). It counts as cell-based. The following applies: Homo sapiens, Leukocyte, 48 hr. From the text:
PBML were obtained from the peripheral blood of healthy volunteers. Blood was submitted to gradient centrifugation with Lympholyte-Poly media (Cedarlane, Hornby, Canada). The layer containing the mononuclear leukocytes was collected and the cells washed three times in PBS. Cells were then suspended in RPMI (Gibco, Burlington, Canada) supplemented with 10% FBS (Hyclone, Logan USA). Viability was greater than 99% as determined by trypan blue exclusion.
PBML were resuspended at 2×10^6 cells/ml. 100 μl of PBML (2×10^5 cells) were incubated in a 96-well microtiter plate for 48 hr in the presence or absence of compound. Cells were quiescent or stimulated with concanavalin A (con A; T-cells) or pokeweed mitogen (PWM; B-cells). After incubation, cells were treated with MTT (cytotoxicity) or pulsed with 1 μCi of [^3H]-thymidine (DNA synthesis), [^3H]-uridine (RNA synthesis), or [^3H]-leucine (protein synthesis) for 6 hr. Plates were harvested on a Tomteck and counted on a Microbeta β-counter.

The subject of experiment [6] is oxazolone-induced delayed-type hypersensitivity (DTH). The experiment in a line: Oxazolone-induced delayed-type hypersensitivity (DTH) in mice. It counts as in vivo. The method, then:
Compounds were tested for their ability to treat oxazolone-induced delayed-type hypersensitivity (DTH) in mice. […] On day 0, day 1, and day 2, mice were treated by intravenous (IV) or oral (PO) administrations of the vehicle (control) or methotrexate (MTX; positive control/IV) or hydrocortisone (positive control/PO) or the compound at concentration lower than or equal to 50 mg/kg or as specified. Mice were challenged with an application of 50 μl of oxazolone on the surface of the right ear (first challenge, day 3; second challenge, day 10). Ear thickness was measured on day 4 to day 7, and on day 11 to 14. Redness and crust formation was also observed. Mice were sacrificed on day 14. TDTH (CD4) cells play an important role in regulating the intensity of the DTH response. Compounds may exert an inhibitory influence on the DTH response through its inhibition of T-cell activation and DNA, RNA, and/or protein synthesis.

The mark [7] stands for this setting: 24 hr culture, read-out: IC50 of 24-hour culture NHDF.
The mark [8] stands for this setting: 72 hr culture, read-out: IC50 of 72-hour culture NHDF.
Setting [9] is: 24 hr culture, read-out: IC50 of 24-hour culture HUVEC.
The mark [10] stands for this setting: 72 hr culture, read-out: IC50 of 72-hour culture HUVEC.
[11] abbreviates: 24 hr culture, read-out: IC50 of 24-hour culture PC-3.
The mark [12] stands for this setting: 72 hr culture, read-out: IC50 of 72-hour culture PC-3.
[13] abbreviates: 24 hr culture, read-out: IC50 of 24-hour culture P815.
Setting [14] is: 72 hr culture, read-out: IC50 of 72-hour culture P815.
Where [15] appears, read: PWM stimulated PBML, read-out: RNA Synthesis PWM.
The mark [16] stands for this setting: resting PBML, read-out: RNA Synthesis Resting.

With `NCCCCCNc1nc(NCCc2ccc(S(N)(=O)=O)cc2)nc(Nc2cccc(F)c2)n1` [Compound II], the IC50 in experiment [1] (setting [7]) was greater than 100 µM; in experiment [1] (setting [8]), 28.6 µM; in experiment [2] (setting [9]) it was 92.2 µM; in experiment [2] (setting [10]), 38.9 µM; in experiment [3] (setting [11]), 32.2 µM; in experiment [3] (setting [12]) it was 18.5 µM. Moreover, the IC50 in experiment [4] (setting [13]) is 66.5 µM; in experiment [4] (setting [14]) it was 1.6 µM; in experiment [5] (setting [15]), 1.1 µM; in experiment [5] (setting [16]), 5.8 µM. For the same compound, in the experiment with B16F10 melanoma, the “T/C (treated/control tumor volume)” value is “around 80%”. The inhibition at 10 µM against TNFα came to 64.2%. Besides, 20 µM produced 83.8% inhibition against TNFα. In addition, the inhibition at 40 µM against TNFα was 78.9%. This compound also returned an inhibition at 5 µM against TNFα of 45.2%. For the same compound, the “inflammation (ear thickness) after DTH” value in experiment [6] (IV 5 mg/kg, first challenge of oxazolone) is “significant reduction of the inflammation”; in experiment [6] (IV 5 mg/kg, second challenge of oxazolone), “significant reduction of the inflammation”.

As for `NCCCCCNc1nc(NCCc2ccc(O)cc2)nc(Nc2ccc(F)cc2)n1` [Compound V], the IC50 in experiment [1] (setting [7]) is 78.6 µM; in experiment [1] (setting [8]), 45.8 µM; in experiment [2] (setting [9]) it was 31.8 µM; in experiment [2] (setting [10]), greater than 100 µM; in experiment [3] (setting [11]), 43.3 µM; in experiment [3] (setting [12]), 26.8 µM. The IC50 stood at 23.5 µM in experiment [4] (setting [13]); 7.5 µM in experiment [4] (setting [14]); 4.5 µM in experiment [5] (setting [15]); 6 µM in experiment [5] (con A stimulated PBML, read-out: RNA Synthesis Con A); 7.4 µM in experiment [5] (setting [16]). Moreover, in the experiment with B16F10 melanoma, the “T/C (treated/control tumor volume)” value was less than 40%. Besides, on TNFα, 10 µM produced 22.2% inhibition. This compound registered an inhibition at 20 µM against TNFα of 51.9%. This compound also gave an inhibition at 40 µM against TNFα of 75.9%. The inhibition at 5 µM against TNFα came out at 8.2%. The “inflammation (ear thickness) after DTH” value in experiment [6] (oral 50 mg/kg, FIG. 15) was “significant reduction of the inflammation”.

`NCCCCCNc1nc(NCCc2ccc(O)cc2)nc(Nc2cccc(F)c2)n1` [Compound I]: the IC50 is 56.8 µM in experiment [1] (setting [7]); 16.3 µM in experiment [1] (setting [8]); 18.8 µM in experiment [2] (setting [9]); 10.1 µM in experiment [2] (setting [10]); 49.4 µM in experiment [3] (setting [11]); 11.8 µM in experiment [3] (setting [12]). For the same compound, the IC50 in experiment [4] (setting [13]) stood at 34 µM; in experiment [4] (setting [14]), 4 µM; in experiment [5] (setting [15]), 2.2 µM; in experiment [5] (setting [16]), 6.8 µM. Besides, in the experiment on B16F10 melanoma, the “T/C (treated/control tumor volume)” value is “around 80%”. The compound further gave an inhibition at 10 µM at TNFα of 33.1%. On TNFα, the inhibition at 20 µM was found to be 58.9%. At TNFα, this compound returned an inhibition at 5 µM of 17.9%. In addition, the “inflammation (ear thickness) after DTH” value in experiment [6] (IV 25 mg/kg, first challenge of oxazolone) is reported as “significant reduction of the inflammation”; in experiment [6] (IV 25 mg/kg, second challenge of oxazolone), “significant reduction of the inflammation”.
